This note sets out measurements from patent publication US20230414617A1, “PHARMACEUTICAL COMPOSITION COMPRISING ACID-BASE NEUTRALIZATION COMBINATION AND APPLICATION THEREOF” (CHENGDU KUACHANGAOPU MEDICAL TECHNOLOGY CO., LTD., priority 2020, published 2023).

Structures can show the parent of a compound that is named as a salt.

Series [1] deals with breast cancer 4T1 cells. Briefly: Tumor inhibition, breast cancer 4T1 transplantation tumor (Example 7). To be noted: intratumoral; for Tumor weight (x ± s): 150 ul/mouse, once every 3 days x3, 5th day after end; for Tumor inhibition rate: vs negative control. It counts as in vivo, BALB/c mouse. How it is done: (§1) In the following examples of the present invention, the co-administration pharmaceutical efficacies of drug A and drug B combination administration was determined by ratio q of actual pharmaceutical efficacy/expected pharmaceutical efficacy according to Zhengjun JIN method, as follows.
In an experiment, the test animal was a BALB/c mouse, the modeling cells were breast cancer 4T1 cells, and the transplantation tumor was modeled at 1×10^6 cells/mouse under the skin of the animal's right axilla. […] The negative controls and study drugs were administered intraperitoneally (groups 02, 11 and 15) and intratumorally (other study groups), respectively. All groups were dosed once every 3 days, for a total of 3 times, […], with an injection volume of 150 ul/mouse. On the 5th day after the administration was ended, the animals were euthanized, and the tumor weight was measured after anatomy to the animals. The tumor inhibition rate was calculated from the negative control group.

Series [2] in a line: pH of the study drug aqueous solution. The series is classed as physicochemical. The note with it: aqueous solution.
In series [3] the test system is breast cancer 4T1 cells. The series can be described thus: Tumor inhibition, breast cancer 4T1 transplantation tumor (Example 6). The note with it: intratumoral; for Tumor weight (x ± s): 150 μl/mouse, once every 3 days x3, 5th day after end; for Tumor inhibition rate: vs negative control. The series is classed as in vivo, BALB/c mouse. How it is done:
as §1
(§2) In an experiment, the test animal was a BALB/c mouse, the modeling cells were breast cancer 4T1 cells, and the transplantation tumor was modeled at 1×10^5 cells/mouse under the skin of the animal's right axilla. Successfully modeled experimental animals (with an average tumor volume of 324 mm^3) were divided into 1 negative control group (group 0) and 9 drug study groups (groups 1-9). […] Each group was administered by intratumoral injection once every 3 days for a total of 3 times, each time at an injection dose of 150 μl/mouse. On the 5th day after the administration was ended, the animals were euthanized, and the tumor weight was measured after anatomy to the animals. The tumor inhibition rate was calculated from the negative control group.

For series [4], the system named is breast cancer 4T1 cells. Briefly: Tumor inhibition, breast cancer 4T1 transplantation tumor (Example 3). The series is classed as in vivo, BALB/c mouse. The note with it: intratumoral; for Tumor weight (x ± s): 150 μl/mouse, once every 3 days x3, 5th day after end; for Tumor inhibition rate: vs negative control. As for the experimental part: as §1
In an experiment, the test animal was a BALB/c mouse, the modeling cells were breast cancer 4T1 cells, and the transplantation tumor was modeled at 1×10^6 cells/mouse under the skin of the animal's right axilla. […] Each group was administered by intratumoral injection once every 3 days for a total of 3 times, each time at an injection dose of 150 μl/mouse. On the 5th day after the administration was ended, the animals were euthanized, and the tumor weight was determined after anatomy to the animals. The tumor inhibition rate was calculated from the negative control group.

Series [5] relates to breast cancer 4T1 cells. The series can be described thus: Tumor inhibition, breast cancer 4T1 transplantation tumor (Example 8). The series is classed as in vivo, BALB/c mouse. To be noted: intratumoral; for Tumor weight (x ± s): 150 μl/mouse, once every 3 days x3, 5th day after end; for Tumor inhibition rate: vs negative control. As for the experimental part:
as §1
as §2, with “336” for “324”, “16” for “9”, “1-16).” for “1-9).”

The test system of series [6] is breast cancer 4T1 cells. The series can be described thus: Tumor inhibition, breast cancer 4T1 transplantation tumor (Example 4). The series is classed as in vivo, BALB/c mice. To be noted: intratumoral; for Tumor weight (x ± s): 150 μl/mouse, once every 3 days x3, 5th day after end; for Tumor inhibition rate: vs negative control. As for the experimental part: as §1
In another experiment, the test animal was BALB/c mice, the modeling cells were breast cancer 4T1 cells, and the transplantation tumor was modeled at 1×10^6 cells/mouse under the skin of the animal's right axilla. Successfully modeled experimental animals (average tumor volume 307 mm^3) were randomly divided into 1 negative control group (group 0) and 13 drug study groups (groups 1-13). […] Each group was administered by intratumoral injection once every 3 days for a total of 3 times, each time at an injection dose of 150 μl/mouse. On the 5th day after the administration was ended, the animals were euthanized, and the tumor weight was measured after anatomy to the animals. The tumor inhibition rate was calculated from the negative control group.

The subject of series [7] is breast cancer 4T1 cells. Briefly: Tumor inhibition, breast cancer 4T1 transplantation tumor (Example 5). The series is classed as in vivo, BALB/c mouse. To be noted: intratumoral; for Tumor weight (x ± s): once every 3 days x3, 5th day after end; for Tumor inhibition rate: vs negative control. How it is done: as §1
In one experiment, the test animal was a BALB/c mouse, the modeling cells were breast cancer 4T1 cells, and the transplantation tumor was modeled at 1×10^6 cells/mouse under the skin of the animal's right axilla. […] Each group was administered by intratumoral injection once every 3 days for a total of 3 times, each time at an injection dose of […]. On the 5th day after the administration was ended, the animals were euthanized, and the tumor weight was measured after anatomy to the animals. The tumor inhibition rate was calculated from the negative control group.

The subject of series [8] is mouse liver cancer Hepa1-6 cells. The series can be described thus: Series B: tumor inhibition, Hepa1-6 transplantation tumor in 8-month-old mice (Example 10). It counts as in vivo. The note with it: one intratumoral injection 100 μl/mouse; for r'3d, tumor inhibition rate (tumor volume): day 3; for r'14d, tumor inhibition rate (tumor volume): day 14. How it is done: The animals in series B were modeled in 8-month-old mice as a middle-aged and elderly patient model, which was not consistent with the commonly used young patient model in terms of tumor formation, tumor histomorphology, and body immunocompetence. […] The model animals were randomly divided into 13 groups. Each group was administered once by intratumoral injection according to the drug grouping in Table 11 with an injection volume of 100 μl/mouse.
The actual/expected ratio […] for short-term drug efficacy and the actual/expected ratio q14d for medium-term drug efficacy were calculated based on the drug efficacies (r′3d, […]) at different times (day 3, day 14), respectively.

Setting [9] is: study drugs of Example 6 (Table 8).
Where [10] appears, read: study drugs of Example 3 (Table 5).
The mark [11] stands for this setting: study drugs of Example 4 (Table 6).
[12] abbreviates: study drugs of Example 5 (Table 7).

In the case of `CN(C)c1ccc2nc3ccc(=[N+](C)C)cc-3sc2c1` [0.3% methylene blue, methylene blue], in series [1], the “Tumor weight (x ± s)” value is reported as 2.11 ± 0.29 g and the Tumor inhibition rate amounted to 3%.
Take `Cl` [0.4% hydrochloric acid, hydrochloric acid]: the pH in series [2] (setting [9]) amounted to 0.1. Besides, in series [3], the “Tumor weight (x ± s)” value was 1.65 ± 0.21 g and the Tumor inhibition rate is given as 21%.
As to `O=c1[nH]cc(F)c(=O)[nH]1` [0.25% 5-fluorouracil, 5-fluorouracil], in series [1], the “Tumor weight (x ± s)” value is reported as 1.94 ± 0.33 g and the Tumor inhibition rate is 11%.
Turning to `[Na+].[OH-]` [1% NaOH, sodium hydroxide], in series [2] (setting [10]), the pH turned out to be 13.4. Besides, in series [4], the “Tumor weight (x ± s)” value was determined as 1.41 ± 0.23 g and the Tumor inhibition rate is 42%.
In the case of `CCN(CC)c1ccc(C(=C2C=CC(=[N+](CC)CC)C=C2)c2cc(O)c(S(=O)(=O)O)cc2S(=O)(=O)O)cc1` [1% patent blue, patent blue], in series [5], the “Tumor weight (x ± s)” value is 1.71 ± 0.25 g and the Tumor inhibition rate is listed as 24%.
For the molecule `[Cl-].[K+]` [2% KCl, potassium chloride], in series [4], the “Tumor weight (x ± s)” value is listed as 2.19 ± 0.31 g and the Tumor inhibition rate turned out to be 11%.
In series [2] (setting [11]), `O=C([O-])O.[Na+]` [2% sodium bicarbonate, sodium bicarbonate] yielded a pH of 8.2. In series [6], the “Tumor weight (x ± s)” value is reported as 2.10 ± 0.25 g and the Tumor inhibition rate was 7%.
As to `O=C([O-])[O-].[Na+].[Na+]` [2.8% sodium carbonate, sodium carbonate], in series [2] (setting [11]), the pH is recorded as 10.9. For the same molecule, in series [6], the “Tumor weight (x ± s)” value came out at 2.10 ± 0.27 g and the Tumor inhibition rate is recorded as 7%.
Turning to `CC(=O)O` [3% acetic acid, acetic acid], the pH in series [2] (setting [12]) amounted to 2.6. Besides, in series [7], the “Tumor weight (x ± s)” value is given as 1.85 ± 0.26 g and the Tumor inhibition rate is on record as 15%.
In the case of `C=C[C@H]1C[N@@]2CC[C@H]1C[C@H]2[C@H](O)c1ccnc2ccc(OC)cc12` [3% quinine monohydrochloride, quinine monohydrochloride], in series [5] (monohydrochloride), the “Tumor weight (x ± s)” value was 1.71 ± 0.26 g and the Tumor inhibition rate was 24%.
`Cl` [3.5% hydrochloric acid, hydrochloric acid]: the pH in series [2] (setting [9]) came to 0.1. Further, in series [3], the “Tumor weight (x ± s)” value was found to be 0.82 ± 0.18 g and the Tumor inhibition rate is 71%.
Take `O=C([O-])O.[Na+]` [4% sodium bicarbonate, sodium bicarbonate]: the pH in series [2] (setting [10]) and in series [2] (setting [12]) was 8.2 in each case. Also, the “Tumor weight (x ± s)” value in series [7] is on record as 1.68 ± 0.27 g; in series [4] it was 1.87 ± 0.22 g. Also, the Tumor inhibition rate in series [7] and in series [4] was 23% in each case.
Take `[Na+].[OH-]` [5% NaOH, sodium hydroxide]: the pH in series [2] (setting [10]) came to 14.0. Besides, in series [4], the “Tumor weight (x ± s)” value turned out to be 0.28 ± 0.12 g and the Tumor inhibition rate is 72%.
`Cl` [5% hydrochloric acid, hydrochloric acid] displayed a pH in series [2] (setting [9]) of 0.1. Besides, in series [3], the “Tumor weight (x ± s)” value was found to be 0.36 ± 0.14 g and the Tumor inhibition rate was determined as 83%.
As for `O=C([O-])O.[Na+]` [5% sodium bicarbonate, sodium bicarbonate], the pH in series [2] (setting [11]) and in series [2] (setting [9]) was 8.2 throughout. Besides, the “Tumor weight (x ± s)” value in series [3] turned out to be 1.57 ± 0.20 g; in series [6], 1.79 ± 0.24 g. Also, the Tumor inhibition rate was determined as 25% in series [3] and 21% in series [6].
For `O=C([O-])[O-].[Na+].[Na+]` [7% sodium carbonate, sodium carbonate], in series [2] (setting [11]), the pH is 10.8. In series [6], the “Tumor weight (x ± s)” value stood at 1.81 ± 0.21 g and the Tumor inhibition rate is 20%.
In series [2] (setting [12]), `CC(=O)[O-].[Na+]` [10% sodium acetate, sodium acetate] gave a pH of 9.3. Moreover, in series [7], the “Tumor weight (x ± s)” value came to 1.72 ± 0.23 g and the Tumor inhibition rate was 21%.
Regarding `O=C([O-])O.[Na+]` [10% sodium bicarbonate, sodium bicarbonate], the pH in series [2] (setting [10]) and in series [2] (setting [11]) was 8.1 throughout. Further, the “Tumor weight (x ± s)” value in series [4] worked out at 1.65 ± 0.29 g; in series [6], 1.58 ± 0.22 g. The Tumor inhibition rate is listed as 32% in series [4] and 30% in series [6].
The molecule `O=C([O-])[O-].[Na+].[Na+]` [14% sodium carbonate, sodium carbonate] gave a pH in series [2] (setting [11]) of 10.8. For the same molecule, in series [6], the “Tumor weight (x ± s)” value was determined as 1.47 ± 0.24 g and the Tumor inhibition rate was 35%.
Regarding `CC(=O)O` [15% acetic acid, acetic acid], the pH in series [2] (setting [12]) stood at 2.5. In series [7], the “Tumor weight (x ± s)” value is 0.70 ± 0.18 g and the Tumor inhibition rate was 68%.
Consider `NCC(=O)O` [15% glycine, glycine], for which the pH in series [2] (setting [12]) and in series [2] (study drugs of Example 7 (Table 9)) was 6.8 each time. Moreover, the “Tumor weight (x ± s)” value in series [7] and in series [1] was 1.81 ± 0.26 g each time. Besides, the Tumor inhibition rate in series [7] and in series [1] was 17% in each case.
With `O=C([O-])O.[Na+]` [15% sodium bicarbonate, sodium bicarbonate], in series [2] (setting [9]), the pH is 8.1. For the same molecule, in series [3], the “Tumor weight (x ± s)” value is given as 1.29 ± 0.24 g and the Tumor inhibition rate amounted to 38%.
In series [2] (setting [12]), `CC(=O)O` [30% acetic acid, acetic acid] had a pH of 2.5. In series [7], the “Tumor weight (x ± s)” value was found to be 0.41 ± 0.11 g and the Tumor inhibition rate came to 81%.
The like results for `CC(=O)[O-].[Na+]` [30% sodium acetate, sodium acetate] were, in that order, 9.4, 1.53 ± 0.21 g and 30%.
As to “dextran40 [2.5% dextran40 aqueous solution]”, in series [8], the “r'3d, tumor inhibition rate (tumor volume)” value is 4.2% and the “r'14d, tumor inhibition rate (tumor volume)” value is given as 5.3%.
As to yeast hydroxymethyl glucan, in series [8], the “r'3d, tumor inhibition rate (tumor volume)” value came out at 4.5% and the “r'14d, tumor inhibition rate (tumor volume)” value is recorded as 7.8%.
